Molecular target: T1, TAK1 (Homo sapiens, UniProt O43318)
T1 construct: gene MAP3K7
T1 sequence (O43318 1-303): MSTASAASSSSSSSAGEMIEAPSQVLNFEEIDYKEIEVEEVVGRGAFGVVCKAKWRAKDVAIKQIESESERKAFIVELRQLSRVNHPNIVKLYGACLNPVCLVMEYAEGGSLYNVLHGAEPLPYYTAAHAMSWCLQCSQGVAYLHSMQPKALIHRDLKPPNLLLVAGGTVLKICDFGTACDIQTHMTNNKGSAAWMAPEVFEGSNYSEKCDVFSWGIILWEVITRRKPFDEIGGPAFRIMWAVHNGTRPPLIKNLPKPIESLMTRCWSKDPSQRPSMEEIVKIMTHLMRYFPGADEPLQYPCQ
T1 sequence (Q15750 437-504 partner): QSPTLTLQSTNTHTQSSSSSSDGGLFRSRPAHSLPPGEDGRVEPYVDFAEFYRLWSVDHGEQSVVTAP
Assay: in vitro kinase inhibition (IC50); selectivity profiled by KiNativ, Ambit and radioactive filter binding panels
Assay type: biochemical

## CCN1CCN(Cc2ccc(NC(=O)c3ccc(C)c(Oc4ccnc5[nH]ccc45)c3)cc2C(F)(F)F)CC1 [NG25]
  IC50: 4 nM

Source: PMC3377608, “The IkappaB Kinase Family Phosphorylates the Parkinson’s Disease Kinase LRRK2 at Ser935 and Ser910 during Toll-Like Receptor Signaling” (PLoS ONE, 2012)
